Consider nine compounds from patent EP0409227A2, “Pyrimidine nucleosides, their preparation and pharmaceutical preparations” (MATTHES, Eckart, Dr., priority 1989, dated 1991).

T1 sequence (P03156 whole entry): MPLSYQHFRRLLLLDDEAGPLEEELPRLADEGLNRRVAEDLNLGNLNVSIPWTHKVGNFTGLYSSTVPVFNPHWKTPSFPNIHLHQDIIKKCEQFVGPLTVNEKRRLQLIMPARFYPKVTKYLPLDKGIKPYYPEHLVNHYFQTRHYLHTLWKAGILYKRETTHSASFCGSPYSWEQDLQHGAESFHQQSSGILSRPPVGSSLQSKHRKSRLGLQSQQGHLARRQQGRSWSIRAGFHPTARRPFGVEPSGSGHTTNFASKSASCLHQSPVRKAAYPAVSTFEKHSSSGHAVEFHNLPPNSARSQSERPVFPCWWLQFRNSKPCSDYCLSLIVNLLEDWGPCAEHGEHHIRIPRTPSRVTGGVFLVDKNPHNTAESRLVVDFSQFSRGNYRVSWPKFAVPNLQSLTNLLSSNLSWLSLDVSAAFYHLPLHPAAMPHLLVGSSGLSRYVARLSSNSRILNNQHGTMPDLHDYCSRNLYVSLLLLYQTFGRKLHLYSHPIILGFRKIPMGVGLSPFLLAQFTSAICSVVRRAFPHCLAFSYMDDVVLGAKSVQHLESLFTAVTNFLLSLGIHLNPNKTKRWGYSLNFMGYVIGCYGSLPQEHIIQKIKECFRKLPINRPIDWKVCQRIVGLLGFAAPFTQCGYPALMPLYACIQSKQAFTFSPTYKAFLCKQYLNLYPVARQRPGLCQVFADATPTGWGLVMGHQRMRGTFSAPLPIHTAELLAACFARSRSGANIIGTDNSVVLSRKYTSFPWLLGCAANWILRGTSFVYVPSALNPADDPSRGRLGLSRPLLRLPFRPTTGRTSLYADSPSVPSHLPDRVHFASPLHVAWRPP

One series has as its target T1, HBV-Polymerase (Hepatitis B virus genotype D subtype ayw, UniProt P03156).
T1 construct: Es wurde zunächst die Hemmbarkeit der HBV-assoziierten Polymerase; host or cells: virus-associated endogenous polymerase
Briefly: Inhibition of HBV polymerase activity by nucleoside triphosphate analogues (method of Kaplan et al.). Type of series: biochemical. The settings on record: 50 % inhibition of HBV polymerase activity; 3 h incubation at 37 °C; read-out: ID₅₀. An excerpt:
Das Hepatitis B Virus (HBV) besitzt eine zirkuläre, partiell doppelsträngige DNA, welche nach Infektion einer Leberzelle durch eine viruseigene Polymerase repliziert wird. Dieser Vorgang setzt jedoch die Synthese einer RNA durch eine zelluläre RNA-Polymerase voraus. Nur diese RNA-Matrize - im Zusammenhang mit der Replikation auch als Prägenom bezeichnet - kann von der HBV-Polymerase für die Synthese zunächst eines RNA-DNA Hybrids und dann der doppelsträngigen DNA benutzt werden. Damit verfügt die HBV-Polymerase über eine enzymatische Aktivität, die der einer reversen Transcriptase ähnelt (Will et al., J.Virology 61, 904 (1987)). Es wurde zunächst die Hemmbarkeit der HBV-assoziierten Polymerase durch die 5′-Triphosphate der erfindungsgemäßen Verbindungen untersucht. Dazu wurde die von Kaplan et al. (J.Virology 12, 995 (1973)) angegebene Methode zur Bestimmung der HBV-Polymerase benutzt, wobei die zu testenden Triphosphate den Ansätzen in verschiedenen Konzentrationen zugesetzt wurden. Die Hemmung der Enzymreaktion wurde nach 3-stündiger Inkubation bei 37 °C durch Vergleich mit einem Kontrollwert ermittelt und daraus die Konzentration der zugesetzten Analoga bestimmt, die zu einer 50 %igen Hemmung der HBV-Polymerase-Aktivität führt (ID₅₀). Tabelle 1 zeigt die Ergebnisse, wobei insbesondere 2′,3′-Didesoxy-3′-fluor-5-methylcytidin durch einen Wert ID₅₀ von 0,03 µM herausragt und damit zu den stärksten bisher bekannten Hemmstoffen der HBV-Polymerase zu rechnen ist. Tabelle 1
Regarding `CCc1cn([C@H]2C[C@H](F)[C@@H](COP(=O)(O)OP(=O)(O)OP(=O)(O)O)O2)c(=O)nc1N` [FEtdCTP, 2′,3′-Didesoxy-3′-fluor-5-ethylcytidin-5′-triphosphat], the IC50 stood at 0.35 µM.
Still for that read-out and setting: for `Cc1cn([C@H]2C[C@H](N)[C@@H](COP(=O)(O)OP(=O)(O)OP(=O)(O)O)O2)c(=O)nc1N` [NH₂MetdCTP, 2′,3′-Didesoxy-3′-amino-5-methylcytidin-5′-triphosphat] the value was 26 µM; for `Cc1cn([C@H]2C[C@H](N=[N+]=[N-])[C@@H](COP(=O)(O)OP(=O)(O)OP(=O)(O)O)O2)c(=O)nc1N` [N₃MetdCTP, 2′,3′-Didesoxy-3′-azido-5-methylcytidin-5′-triphosphat], 0.12 µM.

In the next series the target is T2, DNA-Polymerase-alpha (Homo sapiens, UniProt P09884).
T2 construct: Die Isolierung der Enzyme und deren Aktivitätsbestimmung erfolgte entsprechend der Methode von Matthes et al; from tissue
T2 sequence (P09884 1-1462): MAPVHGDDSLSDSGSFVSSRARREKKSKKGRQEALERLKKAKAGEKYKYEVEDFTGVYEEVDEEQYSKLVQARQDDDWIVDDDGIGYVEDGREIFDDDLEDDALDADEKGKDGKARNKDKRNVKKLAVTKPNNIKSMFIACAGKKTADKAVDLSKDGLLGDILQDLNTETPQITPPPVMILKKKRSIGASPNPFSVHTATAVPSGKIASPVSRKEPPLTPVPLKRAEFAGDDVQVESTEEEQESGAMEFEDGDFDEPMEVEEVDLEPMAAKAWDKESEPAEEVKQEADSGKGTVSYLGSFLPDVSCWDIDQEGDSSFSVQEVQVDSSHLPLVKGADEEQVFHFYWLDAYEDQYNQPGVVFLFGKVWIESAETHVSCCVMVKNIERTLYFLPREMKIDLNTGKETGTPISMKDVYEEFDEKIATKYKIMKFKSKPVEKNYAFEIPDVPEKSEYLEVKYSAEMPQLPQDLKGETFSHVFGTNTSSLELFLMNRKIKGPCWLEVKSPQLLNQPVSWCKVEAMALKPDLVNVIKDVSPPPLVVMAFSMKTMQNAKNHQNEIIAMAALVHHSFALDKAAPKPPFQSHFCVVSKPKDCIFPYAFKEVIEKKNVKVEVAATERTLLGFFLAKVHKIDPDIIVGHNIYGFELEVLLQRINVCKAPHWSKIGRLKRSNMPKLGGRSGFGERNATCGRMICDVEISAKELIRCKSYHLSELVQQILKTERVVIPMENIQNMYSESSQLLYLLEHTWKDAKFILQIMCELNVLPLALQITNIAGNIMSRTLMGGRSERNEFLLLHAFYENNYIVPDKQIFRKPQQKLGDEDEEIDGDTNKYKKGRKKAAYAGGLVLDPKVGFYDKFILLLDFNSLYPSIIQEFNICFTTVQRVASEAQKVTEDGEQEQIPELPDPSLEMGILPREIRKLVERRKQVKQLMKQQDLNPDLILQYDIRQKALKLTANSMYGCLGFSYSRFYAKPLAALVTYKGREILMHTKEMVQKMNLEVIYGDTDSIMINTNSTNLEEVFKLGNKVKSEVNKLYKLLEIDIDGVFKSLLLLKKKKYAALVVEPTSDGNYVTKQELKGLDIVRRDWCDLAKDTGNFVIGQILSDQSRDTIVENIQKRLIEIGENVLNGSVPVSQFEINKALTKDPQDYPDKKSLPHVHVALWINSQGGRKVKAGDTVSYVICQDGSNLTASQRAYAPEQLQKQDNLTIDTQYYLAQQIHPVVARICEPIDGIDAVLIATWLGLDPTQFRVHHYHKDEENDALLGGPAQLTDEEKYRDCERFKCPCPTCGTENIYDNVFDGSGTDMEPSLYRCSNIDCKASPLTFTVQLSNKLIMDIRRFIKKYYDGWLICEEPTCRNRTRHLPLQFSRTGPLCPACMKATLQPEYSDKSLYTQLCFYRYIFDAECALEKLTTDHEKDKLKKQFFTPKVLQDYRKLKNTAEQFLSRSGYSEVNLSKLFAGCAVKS
Put plainly: Effect of modified nucleoside triphosphates on cellular DNA polymerase alpha. Type of series: biochemical. The following applies: read-out: ID₅₀ (µM) DNA-Polymerase- alpha. An excerpt:
(§1) Um zu prüfen, inwieweit die beschriebene Wirkung auf die HBV-Polymerase selektiv ist, d.h., die zellulären DNA-Polymerasen von einer Hemmung durch die erfindungsgemäßen Nucleosidtriphosphate ausgenommen sind, wurden die zellulären DNA-Polymerasen-alpha und -beta in die Untersuchungen einbezogen. Die Isolierung der Enzyme und deren Aktivitätsbestimmung erfolgte entsprechend der Methode von Matthes et al. (Biomed.Biochim.Acta 44, K63-K73 (1985)). Die Ergebnisse der Tabelle 2 zeigen, daß die für die Replikation der zellulären DNA zuständige DNA-Polymerase alpha weitgehend unbeeinflußt bleibt. Eine 50 %ige Hemmung dieses Enzyms wird mit Ausnahme auch bei Hemmstoffkonzentrationen >100 µM noch nicht erreicht, so daß die DNA-Polymerase-alpha diesen Verbindungen gegenüber als nahezu resistent anzusehen ist. Für die DNA-Polymerase-beta, die als Reparaturenzym zellulärer DNA-Schäden angesehen wird, liegen die ID₅₀- Werte zwischen 1 und >200 µM. Damit besitzt die beschriebene Verbindung eine hohe Wirkungsspezifität. Tabelle 2
Consider `CCc1cn([C@H]2C[C@H](F)[C@@H](COP(=O)(O)OP(=O)(O)OP(=O)(O)O)O2)c(=O)nc1N` [FEtdCTP, 2′,3′-Didesoxy-3′-fluor-5-ethylcytidin-5′-triphosphat], for which the IC50 is greater than 200 µM.
For `Cc1cn([C@H]2C[C@H](N)[C@@H](COP(=O)(O)OP(=O)(O)OP(=O)(O)O)O2)c(=O)nc1N` [NH₂MetdCTP, 2′,3′-Didesoxy-3′-amino-5-methylcytidin-5′-triphosphat], the IC50 is greater than 200 µM.
As for `Cc1cn([C@H]2C[C@H](N=[N+]=[N-])[C@@H](COP(=O)(O)OP(=O)(O)OP(=O)(O)O)O2)c(=O)nc1N` [N₃MetdCTP, 2′,3′-Didesoxy-3′-azido-5-methylcytidin-5′-triphosphat], the IC50 is greater than 200 µM.

For a further series, the target named is T3, DNA-Polymerase-beta (Homo sapiens, UniProt P06746).
T3 construct: Die Isolierung der Enzyme und deren Aktivitätsbestimmung erfolgte entsprechend der Methode von Matthes et al; from tissue
Briefly: Effect of modified nucleoside triphosphates on cellular DNA polymerase beta. Type of series: biochemical. The following applies: read-out: ID₅₀ (µM) DNA-Polymerase- beta.
Source text: as §1
On to `CCc1cn([C@H]2C[C@H](F)[C@@H](COP(=O)(O)OP(=O)(O)OP(=O)(O)O)O2)c(=O)nc1N` [FEtdCTP, 2′,3′-Didesoxy-3′-fluor-5-ethylcytidin-5′-triphosphat], for which the IC50 was determined as 3 µM.
The same measure, in the same setting: for `Cc1cn([C@H]2C[C@H](N)[C@@H](COP(=O)(O)OP(=O)(O)OP(=O)(O)O)O2)c(=O)nc1N` [NH₂MetdCTP, 2′,3′-Didesoxy-3′-amino-5-methylcytidin-5′-triphosphat] the value was greater than 200 µM; for `Cc1cn([C@H]2C[C@H](N=[N+]=[N-])[C@@H](COP(=O)(O)OP(=O)(O)OP(=O)(O)O)O2)c(=O)nc1N` [N₃MetdCTP, 2′,3′-Didesoxy-3′-azido-5-methylcytidin-5′-triphosphat], greater than 200 µM.

In a further series the test system is MT4 Zellen. Put plainly: Cytotoxicity: inhibition of proliferation of MT4 cells. Type of series: cell-based.
Settings: not given
As for the experimental part:
Unter dem Aspekt einer möglichen Anwendung der Verbindungen am Menschen wurden ihre antiproliferativen Wirkungen an menschlichen Zellkulturen wie früher beschrieben getestet (E. Matthes et al. Biochem.Biophys.Res.Commun. 153, 825 (1988)). Dabei zeigte sich, daß z.B. 2′,3′-Didesoxy-3-fluor-5-methylcytidin gegenüber der T-Zellinie MT4 eine CD₅₀ von 190 µM aufweist. In einem weiteren Test, in dem eine mögliche Wachstumshemmung koloniebildender Zellen des Knochenmarks der Maus (CFU-GM) untersucht wurde (E. Matthes et al. Biochem.Biophys.Res.Commun. 165, 488 (1989), erwies sich diese Verbindung ebenfalls als kaum proliferationshemmend (CD₅₀ > 500 µM). Die Wirkung weiterer Verbindungen auf die Proliferation von MT4-Zellen ist in Tabelle 3 zusammengefaßt. Tabelle 3
`Nc1nc2c(ncn2[C@H]2C[C@H](F)[C@@H](CO)O2)c(=O)[nH]1` [2′,3′-Didesoxy-3′-fluorguanosin] registered a CD₅₀ of 250 µM.

The same series, now with this note: human, 48 h.
Turning to `Cc1cn([C@H]2C[C@H](N=[N+]=[N-])[C@@H](CO)O2)c(=O)nc1N` [2′,3′-Didesoxy-3′-azido-5-methylcytidin], the CD₅₀ is given as greater than 500 µM.
Regarding `Nc1nc2c(ncn2[C@H]2C=C[C@@H](CO)O2)c(=O)[nH]1` [2′,3′-Didehydro-2′,3′-didesoxyguanosin], the CD₅₀ is listed as 155 µM.
Same read-out and setting: with `Cc1cn([C@H]2C=C[C@@H](CO)O2)c(=O)nc1N` [2′,3′-Didehydro-2′,3′-didesoxy-5-methylcytidin] the figure was 205 µM; with `Cc1cn([C@H]2CC[C@@H](CO)O2)c(=O)nc1N` [2′,3′-Didesoxy-5-methylcytidin], 110 µM.
For the compound `Nc1nc2c(ncn2[C@H]2C[C@H](N)[C@@H](CO)O2)c(=O)[nH]1` [2′,3′-Didesoxy-3′-aminoguanosin], the CD₅₀ turned out to be 210 µM.
